Assay results taken from ChEMBL document CHEMBL1201862, “PubChem BioAssay data set” (2004).
One block for each compound: values may come before it. Active and inactive are the calls of the source.

Experiments:
[1] = molecular target: T1, E3 ubiquitin-protein ligase XIAP (Homo sapiens, UniProt P98170); assay: SAR analysis of Antagonists of IAP-family anti-apoptotic proteins. [Related pubchem assays (depositor defined):AID1018, AID1449, AID1513, AID1514, AID1638]
[2] = molecular target: T1, E3 ubiquitin-protein ligase XIAP; assay: SAR analysis of Antagonists of XIAP-Bir3 domain of IAP-family anti-apoptotic proteins. [Related pubchem assays (depositor defined):AID1018, AID1449, AID1513, AID1514, AID1638]
[3] = molecular target: T2, G-protein coupled receptor 35 (Homo sapiens, UniProt Q9HC97); assay: SAR analysis of Antagonists of the GPR35 Receptor using an Image-Based Assay - Set 3. [Related pubchem assays (depositor defined):AID2013, AID2026]; format: functional
Cannabinoid receptor 2 [4] = molecular target: T3, Cannabinoid receptor 2 (Homo sapiens, UniProt P34972); assay: SAR analysis of antagonists of the Cannabinoid Receptor 2 using an Image-Based Assay. [Related pubchem assays (depositor defined):AID2013, AID2026]; format: functional
Cannabinoid receptor 1 [5] = molecular target: T4, Cannabinoid receptor 1 (Homo sapiens, UniProt P21554); assay: SAR analysis of agonists of the Cannabinoid Receptor 1 using an Image-Based Assay - Set 2. [Related pubchem assays (depositor defined):AID2013, AID2026]; format: functional
Cannabinoid receptor 1 [6] = molecular target: T4, Cannabinoid receptor 1; assay: SAR analysis of antagonists of the Cannabinoid Receptor 1 using an Image-Based Assay - Set 2. [Related pubchem assays (depositor defined):AID2013, AID2026]; format: functional
[7] = molecular target: T2, G-protein coupled receptor 35; assay: SAR analysis of Agonists of the GPR35 Receptor using an Image-Based Assay - Set 2. [Related pubchem assays (depositor defined):AID2013, AID2026]; format: functional
Cannabinoid receptor 2 [8] = molecular target: T3, Cannabinoid receptor 2; assay: SAR analysis of agonists of the Cannabinoid Receptor 2 using an Image-Based Assay. [Related pubchem assays (depositor defined):AID2013, AID2026]; format: functional
[9] = molecular target: T5, G-protein coupled receptor 55 (Homo sapiens, UniProt Q9Y2T6); assay: blockade of LPI-induced GPR55 arrestin translocation – imaging, U2OS, beta-arrestin-GFP, LPI agonist, set 2, SAR follow-up (AID 2820); format: functional
[10] = molecular target: T5, G-protein coupled receptor 55; assay: inhibition of LPI-stimulated GPR55 beta-arrestin translocation – imaging, U2OS, beta-arrestin-GFP, LPI agonist, primary screen (AID 2013); format: functional;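 note: antagonist potency measured as reduced agonist-driven arrestin aggregation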
[11] = molecular target: T6, Kappa-type opioid receptor (Homo sapiens, UniProt P41145); assay: SAR analysis of small molecule antagonists of the kappa opioid receptor via a luminescent beta-arrestin assay - Set 4. [Related pubchem assays (depositor defined):AID1777, AID1778, AID1785, AID1786, AID1966, AID2133, AID2136, AID2285]; format: functional
[12] = molecular target: T6, Kappa-type opioid receptor; assay: SAR analysis of small molecule antagonists of the kappa opioid receptor via a luminescent beta-arrestin assay - Set 5. [Related pubchem assays (depositor defined):AID1778, AID1785]; format: functional
[13] = molecular target: Intestinal-type alkaline phosphatase (Homo sapiens, UniProt P09923); assay: human intestinal alkaline phosphatase activators, dose response, biochemical, luminescence, uHTS hits (AID 463120); format: functional
Intestinal-type alkaline phosphatase, sequence (P09923 whole entry): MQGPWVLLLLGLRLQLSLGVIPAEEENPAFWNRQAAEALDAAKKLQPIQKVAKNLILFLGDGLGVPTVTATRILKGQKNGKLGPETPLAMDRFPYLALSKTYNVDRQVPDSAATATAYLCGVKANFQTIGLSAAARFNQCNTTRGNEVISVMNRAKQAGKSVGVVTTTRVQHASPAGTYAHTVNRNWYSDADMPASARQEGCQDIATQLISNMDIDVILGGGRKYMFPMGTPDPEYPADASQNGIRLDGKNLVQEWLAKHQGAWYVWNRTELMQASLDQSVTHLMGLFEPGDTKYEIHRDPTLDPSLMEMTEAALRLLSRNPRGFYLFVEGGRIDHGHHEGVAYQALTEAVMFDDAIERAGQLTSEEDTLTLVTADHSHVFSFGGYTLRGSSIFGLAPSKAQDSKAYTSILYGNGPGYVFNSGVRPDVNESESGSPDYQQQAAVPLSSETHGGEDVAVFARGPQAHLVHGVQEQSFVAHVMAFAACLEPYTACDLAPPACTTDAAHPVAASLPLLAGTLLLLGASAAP

T5 sequence (Q9Y2T6 whole entry): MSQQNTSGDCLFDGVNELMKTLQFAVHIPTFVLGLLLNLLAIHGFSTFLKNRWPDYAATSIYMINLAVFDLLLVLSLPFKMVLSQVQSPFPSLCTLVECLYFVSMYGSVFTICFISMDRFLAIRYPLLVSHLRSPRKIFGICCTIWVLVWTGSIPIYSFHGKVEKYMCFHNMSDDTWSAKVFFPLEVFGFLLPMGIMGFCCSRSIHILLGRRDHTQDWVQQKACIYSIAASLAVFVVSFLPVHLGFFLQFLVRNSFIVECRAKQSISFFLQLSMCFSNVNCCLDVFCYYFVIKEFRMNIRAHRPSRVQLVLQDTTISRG
T1 sequence (P98170 whole entry, the tested form may be a part): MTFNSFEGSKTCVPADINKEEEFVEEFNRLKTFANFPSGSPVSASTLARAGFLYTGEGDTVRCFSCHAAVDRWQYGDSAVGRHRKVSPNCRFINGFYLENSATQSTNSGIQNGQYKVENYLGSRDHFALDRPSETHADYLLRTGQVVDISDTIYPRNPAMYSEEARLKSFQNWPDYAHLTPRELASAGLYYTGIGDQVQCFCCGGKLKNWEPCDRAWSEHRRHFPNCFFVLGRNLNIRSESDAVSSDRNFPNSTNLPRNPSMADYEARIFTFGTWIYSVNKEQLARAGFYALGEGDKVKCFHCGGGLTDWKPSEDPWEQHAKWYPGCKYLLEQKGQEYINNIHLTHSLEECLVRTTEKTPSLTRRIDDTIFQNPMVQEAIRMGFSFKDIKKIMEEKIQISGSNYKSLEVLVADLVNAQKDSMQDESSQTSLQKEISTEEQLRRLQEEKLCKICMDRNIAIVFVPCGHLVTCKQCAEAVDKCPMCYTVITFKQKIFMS
T3 sequence (P34972 whole entry): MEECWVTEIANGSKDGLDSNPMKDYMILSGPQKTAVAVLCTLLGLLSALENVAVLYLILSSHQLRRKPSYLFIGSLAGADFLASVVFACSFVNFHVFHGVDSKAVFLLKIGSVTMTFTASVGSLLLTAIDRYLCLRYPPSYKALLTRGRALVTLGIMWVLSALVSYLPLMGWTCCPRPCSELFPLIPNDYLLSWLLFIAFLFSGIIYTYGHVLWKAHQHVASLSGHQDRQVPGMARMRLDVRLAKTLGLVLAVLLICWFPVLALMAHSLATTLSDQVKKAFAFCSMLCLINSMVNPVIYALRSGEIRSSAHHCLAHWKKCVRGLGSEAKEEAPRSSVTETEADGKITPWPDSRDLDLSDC
T2 sequence (Q9HC97 whole entry): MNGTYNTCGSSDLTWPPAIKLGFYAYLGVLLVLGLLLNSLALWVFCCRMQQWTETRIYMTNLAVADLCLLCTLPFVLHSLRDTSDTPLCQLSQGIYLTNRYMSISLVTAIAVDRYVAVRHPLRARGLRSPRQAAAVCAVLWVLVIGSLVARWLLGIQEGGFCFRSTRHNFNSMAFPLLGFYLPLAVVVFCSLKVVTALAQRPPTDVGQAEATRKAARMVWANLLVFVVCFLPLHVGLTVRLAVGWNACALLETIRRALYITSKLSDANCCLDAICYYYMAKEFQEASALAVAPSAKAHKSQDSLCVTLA
T6 sequence (P41145 whole entry): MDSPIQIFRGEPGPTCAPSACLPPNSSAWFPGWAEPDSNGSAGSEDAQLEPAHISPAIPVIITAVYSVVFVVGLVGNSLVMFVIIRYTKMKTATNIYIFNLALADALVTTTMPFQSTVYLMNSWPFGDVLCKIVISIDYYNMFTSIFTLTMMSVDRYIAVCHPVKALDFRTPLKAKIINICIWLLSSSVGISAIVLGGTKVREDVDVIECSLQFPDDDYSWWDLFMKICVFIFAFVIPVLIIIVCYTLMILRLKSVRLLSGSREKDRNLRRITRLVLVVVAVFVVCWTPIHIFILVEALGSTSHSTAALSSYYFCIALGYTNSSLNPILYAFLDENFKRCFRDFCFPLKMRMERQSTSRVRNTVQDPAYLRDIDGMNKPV
T4 sequence (P21554 whole entry): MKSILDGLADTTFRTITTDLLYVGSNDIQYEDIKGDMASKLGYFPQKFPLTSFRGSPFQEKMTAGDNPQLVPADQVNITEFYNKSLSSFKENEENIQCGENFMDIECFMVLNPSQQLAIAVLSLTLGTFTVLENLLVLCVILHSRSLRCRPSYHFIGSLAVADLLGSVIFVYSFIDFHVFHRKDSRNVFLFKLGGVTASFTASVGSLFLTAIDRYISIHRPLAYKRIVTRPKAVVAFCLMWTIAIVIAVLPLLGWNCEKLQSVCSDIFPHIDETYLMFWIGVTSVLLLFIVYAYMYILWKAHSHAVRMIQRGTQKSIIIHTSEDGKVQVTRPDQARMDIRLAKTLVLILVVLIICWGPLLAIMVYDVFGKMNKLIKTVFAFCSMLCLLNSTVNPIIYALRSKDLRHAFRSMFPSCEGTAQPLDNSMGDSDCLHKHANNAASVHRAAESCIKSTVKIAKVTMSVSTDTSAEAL

IC50 [1]: 1.3 µM (active)
IC50 [2]: 2.9 µM (active)
Compound: CN[C@@H](C)C(=O)N[C@H](C(=O)N1CCC[C@H]1C(=O)NNc1ccccc1)C(C)C

IC50 [3]: > 32 µM (inactive)
IC50 (Cannabinoid receptor 2 [4]): > 32 µM (inactive)
EC50 (Cannabinoid receptor 1 [5]): > 32 µM (inactive)
IC50 (Cannabinoid receptor 1 [6]): > 32 µM (inactive)
EC50 [7]: > 32 µM (inactive)
EC50 (Cannabinoid receptor 2 [8]): > 32 µM (inactive)
IC50 [9]: 1.81 µM (active)
IC50 [10]: 3.42 µM (active)
Compound: CCCCC1(Cc2ccc(OC)c([N+](=O)[O-])c2)C(=O)N(c2ccccc2)N(c2ccccc2)C1=O

IC50 [11]: 2.49 µM (active)
IC50 [12]: 2.34 µM (active)
Compound: Cc1ccccc1S(=O)(=O)NCc1ccc(C(=O)NCCN(Cc2ccccc2)C(C)C)cc1

EC50 [13]: 12.7 µM (active)
Compound: Cc1cc(C)c2nc(SCC(=O)NNC(=O)c3ccco3)c(C)cc2c1
